Source: US5096907A, “Antibiotic LL-E19085” (American Cyanamid Company, priority 1991, dated 1992)
≈ marks a conversion by molar mass, not a printed value. Like-named read-outs stand apart in the source and are kept apart here.

Legend:
Assay in all cases: In vitro antibacterial activity, agar dilution
Format in all cases: cell-based
[1] = tested on: Streptococcus a-hemolyticus; details: strain AMCH 88-84, Mueller-Hinton agar, read-out: Minimal Inhibitory Concentration
Description: (§1) The in vitro antibacterial effects of antibiotics LL-E19085α, LL-E19085β, LL-E19085γ, LL-E19085.zeta. and LL-E19085.eta. were determined by standard agar dilution methods against clinical isolates obtained from medical centers representing various geographical areas in the United States. The inoculum of each culture was approximately 1 to 5×10^4 colony forming units applied with a Steers multiple inocula replicator to plates containing the antibiotic in Mueller-Hinton agar. The agar was supplemented with about 5% sheep blood where required for the growth of the organism.

[2] = tested on: Streptococcus b-hemolyticus; details: strain AMCH 88-86, Mueller-Hinton agar, read-out: Minimal Inhibitory Concentration
Description: as §1

Streptococcus faecalis = details: Enterococcus faecalis, Mueller-Hinton agar, read-out: Minimal Inhibitory Concentration
Description: as §1

Staphylococcus aureus = details: read-out: Minimal Inhibitory Concentration
Description: as §1

[3] = tested on: Staphylococcus hemolyticus; details: read-out: Minimal Inhibitory Concentration
Description: as §1

Enterococcus = details: strain CHBM 88-60, Mueller-Hinton agar, read-out: Minimal Inhibitory Concentration
Description: as §1

Escherichia coli = tested on: Escherichia coli
Description: as §1

Streptococcus pneumoniae = details: read-out: Minimal Inhibitory Concentration
Description: as §1

Klebsiella pneumoniae = details: strain NEMC 87-271, Mueller-Hinton agar, read-out: Minimal Inhibitory Concentration
Description: as §1

Enterococcus Grp D = details: strain WRVA 88-33, Mueller-Hinton agar, read-out: Minimal Inhibitory Concentration
Description: as §1

Bacteroides cereus = details: read-out: Minimal Inhibitory Concentration
Description: as §1

[4] = ATCC25923, strain ATCC 25923, Mueller-Hinton agar
[5] = ATCC29213, strain ATCC 29213, Mueller-Hinton agar
[6] = strain CMC 83-131, Mueller-Hinton agar
[7] = strain IVES 542, Mueller-Hinton agar
[8] = strain K82-26, Mueller-Hinton agar
[9] = strain NEMC 87-69, Mueller-Hinton agar
[10] = strain ROSE (MP), Mueller-Hinton agar
[11] = strain VGH 84-47, Mueller-Hinton agar
[12] = strain AVAH 88-1, Mueller-Hinton agar
[13] = strain AVAH 88-3, Mueller-Hinton agar
[14] = ATCC25922, strain ATCC 25922, Mueller-Hinton agar, read-out: Minimal Inhibitory Concentration
[15] = ATCC35218, strain ATCC 35218, Mueller-Hinton agar, read-out: Minimal Inhibitory Concentration
[16] = read-out: Minimal Inhibitory Concentration, strain D21, Mueller-Hinton agar
[17] = strain D22, Mueller-Hinton agar, read-out: Minimal Inhibitory Concentration
[18] = strain CHBB 88-75, Mueller-Hinton agar
[19] = strain CHBM 88-70, Mueller-Hinton agar
[20] = strain TEX 85-2, Mueller-Hinton agar

Row | SMILES | MIC [1] [µg/mL] | MIC [2] [µg/mL] | MIC (Streptococcus faecalis; strain ARUM 87-41) [µg/mL] | MIC (Streptococcus faecalis; strain CMC 83-120) [µg/mL] | MIC (Streptococcus faecalis; strain VCH 84-69) [µg/mL] | MIC (Streptococcus faecalis; strain VCI 85-30) [µg/mL] | MIC (Staphylococcus aureus; [4]) [µg/mL] | MIC (Staphylococcus aureus; [5]) [µg/mL] | MIC (Staphylococcus aureus; [6]) [µg/mL] | MIC (Staphylococcus aureus; [7]) [µg/mL] | MIC (Staphylococcus aureus; [8]) [µg/mL] | MIC (Staphylococcus aureus; [9]) [µg/mL] | MIC (Staphylococcus aureus; [10]) [µg/mL] | MIC (Staphylococcus aureus; [11]) [µg/mL] | MIC [3, 12] [µg/mL] | MIC [3, 13] [µg/mL] | MIC (Enterococcus) [µg/mL] | MIC (Escherichia coli; [14]) [µg/mL] | MIC (Escherichia coli; [15]) [µg/mL] | MIC (Escherichia coli; [16]) [µg/mL] | other results
1 | COc1cc2oc3c(c(=O)c2cc1OC)C(=O)c1c(ccc2cc4c(c(O)c12)C(=O)N1C(C)(C4)OC(=O)C1(C)COC(C)=O)C3=O (stereo not drawn) [LL-E19085γ] | ≤ 0.008 | ≤ 0.008 | 0.5 (≈ 0.797 µM) | 1 (≈ 1.59 µM) | 0.03 (≈ 0.0478 µM) | 0.06 (≈ 0.0956 µM) | ≥ 0.008 | 1 (≈ 1.59 µM) | 16 (≈ 25.5 µM) | 8 (≈ 12.7 µM) | ≤ 0.008 | 4 (≈ 6.37 µM) | 1 (≈ 1.59 µM) | 1 (≈ 1.59 µM) | 8 (≈ 12.7 µM) | 0.5 (≈ 0.797 µM) | 0.5 (≈ 0.797 µM) | > 16 | > 16 | ≥ 16 | MIC (Escherichia coli; [17]): 16 µg/mL (≈ 25.5 µM); MIC (Streptococcus pneumoniae; [18]): ≤ 0.008 µg/mL; MIC (Streptococcus pneumoniae; [19]): ≤ 0.008 µg/mL; MIC (Streptococcus pneumoniae; [20]): ≤ 0.008 µg/mL; MIC (Klebsiella pneumoniae): ≥ 16 µg/mL; MIC (Enterococcus Grp D): 0.5 µg/mL (≈ 0.797 µM); MIC (Bacteroides cereus): 0.5 µg/mL (≈ 0.797 µM)
2 | COc1cc2oc3c(c(=O)c2cc1OC)C(=O)c1c(ccc2cc4c(c(O)c12)C(=O)N1C(C)(C4)OC(=O)C1(C)COC(=O)C(C)C)C3=O (stereo not drawn) [LL-E19085β] | 0.5 (≈ 0.763 µM) | 2 (≈ 3.05 µM) | 2 (≈ 3.05 µM) | 2 (≈ 3.05 µM) | 2 (≈ 3.05 µM) | 2 (≈ 3.05 µM) | 0.5 (≈ 0.763 µM) | 2 (≈ 3.05 µM) | 4 (≈ 6.1 µM) | 4 (≈ 6.1 µM) | 2 (≈ 3.05 µM) | 4 (≈ 6.1 µM) | 2 (≈ 3.05 µM) | 4 (≈ 6.1 µM) | 2 (≈ 3.05 µM) | 4 (≈ 6.1 µM) | 2 (≈ 3.05 µM) | > 64 | > 64 | ≥ 64 | MIC (Escherichia coli; [17]): 8 µg/mL (≈ 12.2 µM); MIC (Streptococcus pneumoniae; [18]): 0.12 µg/mL (≈ 0.183 µM); MIC (Streptococcus pneumoniae; [19]): 0.25 µg/mL (≈ 0.381 µM); MIC (Streptococcus pneumoniae; [20]): 0.12 µg/mL (≈ 0.183 µM); MIC (Klebsiella pneumoniae): ≥ 64 µg/mL; MIC (Enterococcus Grp D): 2 µg/mL (≈ 3.05 µM); MIC (Bacteroides cereus): 2 µg/mL (≈ 3.05 µM)
